Reference: patent publication US20040132996A1, “Method for preparation of ceftiofur and salts thereof” (LUPIN LIMITED, priority 2002, published 2004)

Experiment: Storage stability of the product at 40° ± 2° C. for 90 days (drop in assay)
Format: physicochemical
Settings: for Storage Stability: assay after storage: after 90 days at 40° ± 2° C.; for Storage Stability: assay at start: before storage at 40° ± 2° C.; for storage stability (statement in words): product obtained by the process of the invention

Compound: CO/N=C(\C(=O)N[C@@H]1C(=O)N2C(C(=O)O)=C(CSC(=O)c3ccco3)CS[C@H]12)c1csc(N)n1 [ceftiofur (Ia)]
- Storage Stability (90 days at 40° ± 2° C.): Stable for 90 days at 40° ± 2 °C with a
- Storage Stability: assay after storage: 92%
- Storage Stability: assay at start: 97%
- storage stability (statement in words): high storage stability

Compound: CO/N=C(\C(=O)N[C@@H]1C(=O)N2C(C(=O)[O-])=C(CSC(=O)c3ccco3)CS[C@H]12)c1csc(N)n1.[Na+] [ceftiofur sodium (Ib)]
- Storage Stability: assay after storage: 87%
- Storage Stability: assay at start: 94%
- storage stability (statement in words): high storage stability
